The subject of test [1] is wheat. In words: Test A postemergence. Format: in vivo, Triticum aestivum. The gist of the method:
(§1)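 Greenhouse pot test, loam/sand soil. Formulation: non-phytotoxic solvent mix plus surfactant. Pre: directed spray onto soil after sowing. Post: plants at 1–2 leaf, 2–10 cm. Rated visually vs untreated controls at ~10 d, 0 (no effect) to 100 (complete control).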

Test [2] deals with pigweed. In words: Test A postemergence. It is filed as in vivo, Amaranthus retroflexus. Put shortly: as §1
Test [3] concerns giant foxtail. In words: Test A preemergence. Format: in vivo, Setaria faberii. Put shortly: as §1
The subject of test [4] is wheat, winter. Description: Test C preemergence. It is filed as in vivo, Triticum aestivum. An excerpt: (§2) Seeds of plant species selected from blackgrass (Alopecurus myosuroides), Italian ryegrass (Lolium multiflorum), wheat, winter (winter wheat, Triticum aestivum), galium (catchweed bedstraw, Galium aparine), corn (Zea mays), large (Lg) crabgrass (Digitaria sanguinalis), giant foxtail (Setaria faberii), johnsongrass (Sorghum halepense), lambsquarters (Chenopodium album), morningglory (Ipomoea coccinea), yellow nutsedge (Cyperus esculentus), pigweed (Amaranthus retroflexus), ragweed (common ragweed, Ambrosia elatior), soybean (Glycine max), barnyardgrass (Echinochloa crus-galli), oilseed rape (Brassica napus), waterhemp (common waterhemp, Amaranthus rudis), kochia (Kochia scoparia), wild oat (Avena fatua), surinam grass (Brachiaria decumbens), foxtail, green (green foxtail, Setaria viridis), goosegrass (Eleusine indica), bromegrass, downy (downy bromegrass, Bromus tectorum), nightshade (eastern black nightshade, Solanum ptycanthum), cocklebur (common cocklebur, Xanthium strumarium), cupgrass, woolly (woolly cupgrass, Eriochloa villosa), bermudagrass (Cynodon dactylon), sunflower, (common oilseed sunflower, Helianthus annuus), Russian thistle (Salsola kali), and velvetleaf (Abutilon theophrasti) were planted into a blend of loam soil and sand and treated preemergence with test chemicals formulated in a non-phytotoxic solvent mixture which included a surfactant.
(§3) At the same time, plants selected from these crop and weed species and also barley, winter (winter barley, Hordeum vulgare), windgrass (Apera spica-venti), chickweed (common chickweed, Stellaria media), deadnettle (henbit deadnettle, Lamium amplexicaule), and canarygrass (littleseed canarygrass, Phalaris minor) were planted in pots containing Redi-Earth® planting medium (Scotts Company, 14111 Scottslawn Road, Marysville, Ohio 43041) comprising spaghnum peat moss, vermiculite, wetting agent and starter nutrients and treated with postemergence applications of test chemicals formulated in the same manner. Plants ranged in height from 2 to 18 cm (1- to 4-leaf stage) for postemergence treatments. Treated plants and controls were maintained in a greenhouse for 13 to 15 days, after which time all species were compared to controls and visually evaluated. Plant response ratings, summarized in Table C, are based on a scale of 0 to 100 where 0 is no effect and 100 is complete control. A dash (-) response means no test result.

Test [5] has as its system barnyardgrass. Description: Test C preemergence. Format: in vivo, Echinochloa crus-galli.
Description: as §2, §3

In test [6] the test system is lambsquarters. Description: Test C preemergence. It is filed as in vivo, Chenopodium album. Put shortly:
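Whole-plant greenhouse test with surfactant-containing solvent formulation, applied preemergence to sown loam–sand pots or postemergence to 2–18 cm plants. Scored by eye 13 to 15 days on, 0–100 scale.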

Test [7] relates to barnyardgrass. Description: Test B flooded paddy test. It is filed as in vivo, Echinochloa crus-galli. Conditions: Flood, 250 g ai/ha, 0 to 100 scale where 0 is no effect and 100 is complete control. Put shortly:
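Flooded to 3 cm at the 2-leaf stage, pots received compound through the paddy water and were kept at that depth under greenhouse conditions. After 13–15 days, effect was rated by eye relative to controls, 0 = none and 100 = complete control.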

Where [8] appears, read: 31 g ai/ha, 0 to 100 scale, 0 no effect, 100 complete control.
The mark [9] stands for this setting: 125 g ai/ha, 0 to 100 scale, 0 no effect, 100 complete control.
The mark [10] stands for this setting: 31 g ai/ha, 0 to 100 scale where 0 is no effect and 100 is complete control, visual, approximately 10 days.
The mark [11] stands for this setting: 16 g ai/ha, preemergence, scale 0 to 100 (0 no effect, 100 complete control).
[12] abbreviates: 125 g ai/ha, preemergence, scale 0 (no effect) to 100 (complete control).
Setting [13] is: Preemergence, 62 g ai/ha, scale 0 to 100, 0 no effect, 100 complete control.
[14] abbreviates: 125 g ai/ha, 0 to 100 scale where 0 is no effect and 100 is complete control.
Setting [15] is: 62 g ai/ha, preemergence, scale 0 (no effect) to 100 (complete control).
Where [16] appears, read: Preemergence, 31 g ai/ha, scale 0 to 100, 0 no effect, 100 complete control.

For `Fc1cccc(Oc2ncc(Cl)cn2)c1-n1cc(OCC(F)(F)F)cn1` [Compound 270], the “Plant response rating, Wheat” value in test [1] (setting [8]) stood at 0; in test [1] (setting [9]), 30; in test [4] (setting [13]), 0. In addition, the “Plant response rating, Pigweed” value in test [2] (setting [8]) was found to be 60; in test [2] (setting [9]) it was 100. Also, in test [3] (setting [10]), the “Plant response rating, Foxtail, Giant” value came out at 40. Moreover, the “Foxtail, Giant plant response rating (0 to 100 scale)” value (“Foxtail, Giant plant response rating” for short) in test [3] (125 g ai/ha) is recorded as 100. Besides, the figures for the “Wheat plant response rating” value in test [4] (setting [11]) and in test [4] (setting [12]) were 0 and 5, respectively. Besides, the “Barnyardgrass plant response rating” value worked out at 0 in test [5] (setting [11]) and 100 in test [5] (setting [12]). Also, the results for the “Plant response rating, Barnyardgrass” value in test [5] (setting [13]) and in test [7] were 90 and 35, respectively. The “Lambsquarters plant response rating” value is 80 in test [6] (setting [11]) and 100 in test [6] (setting [12]). In addition, the “Plant response rating, Lambsquarters” value in test [6] (setting [13]) was 100.
Turning to `N#Cc1cccc(Oc2ncc(Cl)cn2)c1-n1cnc(C(F)(F)F)c1` [Compound 252, 3-[(5-chloro-2-pyrimidinyl)oxy]-2-[4-(trifluoromethyl)-1H-imidazol-1-yl]benzonitrile], the plant injury at 31 g/ha in test [1] (Triticum aestivum, post-emergence, 240 h, 31 g ai/ha, 0 to 100 scale, 0 no effect, 100 complete control, read-out: Plant response rating, Wheat) was 20%. Besides, the plant injury at 125 g/ha in test [1] (Triticum aestivum, post-emergence, 240 h, 125 g ai/ha, 0 to 100 scale, 0 no effect, 100 complete control, read-out: Plant response rating, Wheat) is 30%; in test [4] (Triticum aestivum, pre-emergence, 125 g ai/ha, preemergence, scale 0 (no effect) to 100 (complete control), read-out: Wheat plant response rating), 45%. Besides, in test [1] (Triticum aestivum, post-emergence, 240 h, 500 g ai/ha, 0 to 100 scale where 0 is no effect and 100 is complete control, read-out: Plant response rating, Wheat), the plant injury at 500 g/ha turned out to be 90%. Moreover, the pest or weed control at 31 g/ha was 80% in test [2] (Amaranthus retroflexus, post-emergence, 31 g ai/ha, 0 to 100 scale, 0 no effect, 100 complete control, read-out: Plant response rating, Pigweed); 70% in test [3] (Setaria faberi, pre-emergence, 240 h, 31 g ai/ha, 0 to 100 scale where 0 is no effect and 100 is complete control, visual, approximately 10 days, read-out: Plant response rating, Foxtail, Giant). The pest or weed control at 125 g/ha in test [2] (Amaranthus retroflexus, post-emergence, 125 g ai/ha, 0 to 100 scale, 0 no effect, 100 complete control, read-out: Plant response rating, Pigweed) was 100%; in test [5] (Echinochloa crus-galli, pre-emergence, 125 g ai/ha, preemergence, scale 0 (no effect) to 100 (complete control), read-out: Barnyardgrass plant response rating), 100%; in test [6] (Chenopodium album, pre-emergence, 125 g ai/ha, preemergence, scale 0 (no effect) to 100 (complete control), read-out: Lambsquarters plant response rating), 100%. Also, the pest or weed control at 500 g/ha in test [2] (Amaranthus retroflexus, post-emergence, 500 g ai/ha, 0 to 100 scale where 0 is no effect and 100 is complete control, read-out: Plant response rating, Pigweed) was 100%; in test [3] (Setaria faberi, pre-emergence, 240 h, 500 g ai/ha, 0 to 100 scale where 0 is no effect and 100 is complete control, read-out: Foxtail, Giant plant response rating), 100%. In addition, the “Foxtail, Giant plant response rating” value in test [3] (125 g ai/ha) was 100. The plant injury at 16 g/ha in test [4] (Triticum aestivum, pre-emergence, 16 g ai/ha, preemergence, scale 0 to 100 (0 no effect, 100 complete control), read-out: Wheat plant response rating) stood at 0%. In addition, the plant injury at 62 g/ha in test [4] (Triticum aestivum, pre-emergence, Preemergence, 62 g ai/ha, scale 0 to 100, 0 no effect, 100 complete control, read-out: Plant response rating, Wheat) was 0%. Also, the pest or weed control at 16 g/ha in test [5] (Echinochloa crus-galli, pre-emergence, 16 g ai/ha, preemergence, scale 0 to 100 (0 no effect, 100 complete control), read-out: Barnyardgrass plant response rating) turned out to be 10%; in test [6] (Chenopodium album, pre-emergence, 16 g ai/ha, preemergence, scale 0 to 100 (0 no effect, 100 complete control), read-out: Lambsquarters plant response rating), 98%. Also, the pest or weed control at 62 g/ha in test [5] (Echinochloa crus-galli, pre-emergence, Preemergence, 62 g ai/ha, scale 0 to 100, 0 no effect, 100 complete control, read-out: Plant response rating, Barnyardgrass) came out at 100%; in test [6] (Chenopodium album, pre-emergence, Preemergence, 62 g ai/ha, scale 0 to 100, 0 no effect, 100 complete control, read-out: Plant response rating, Lambsquarters) it was 100%. Moreover, the pest or weed control at 250 g/ha in test [7] (Echinochloa crus-galli, read-out: Plant response rating, Barnyardgrass) is 40%.
Turning to `FCc1cccc(Oc2ncc(Cl)cn2)c1-n1cc(Cl)cn1` [Compound 250], the “Plant response rating, Wheat” value in test [1] (setting [8]), in test [1] (setting [9]) and in test [4] (setting [13]) was 0 throughout. In addition, the results for the “Plant response rating, Pigweed” value in test [2] (setting [8]) and in test [2] (setting [9]) were 60 and 90, respectively. Further, the “Plant response rating, Foxtail, Giant” value in test [3] (setting [10]) was 30. For the same compound, the “Foxtail, Giant plant response rating” value in test [3] (125 g ai/ha) was 100. The “Wheat plant response rating” value in test [4] (setting [11]) and in test [4] (setting [12]) was 0 in each case. In addition, the figures for the “Barnyardgrass plant response rating” value in test [5] (setting [11]) and in test [5] (setting [12]) were 5 and 100, respectively. The “Plant response rating, Barnyardgrass” value is 50 in test [5] (setting [13]) and 0 in test [7]. Moreover, the “Lambsquarters plant response rating” value in test [6] (setting [11]) came to 90; in test [6] (setting [12]) it was 100. For the same compound, in test [6] (setting [13]), the “Plant response rating, Lambsquarters” value was determined as 100.
As for `FCc1cccc(Oc2ncc(F)cn2)c1-n1cc(C(F)(F)F)cn1` [Compound 118], the “Plant response rating, Wheat” value is 20 in test [1] (setting [8]) and 0 in test [4] (setting [16]). In test [2] (setting [8]), the “Plant response rating, Pigweed” value is listed as 70. Moreover, in test [3] (31 g ai/ha), the “Foxtail, Giant plant response rating” value amounted to 80. In test [3] (setting [14]), the “Plant response rating, Foxtail, Giant” value was 100. For the same compound, the “Wheat plant response rating” value in test [4] (setting [11]) was 0; in test [4] (setting [15]), 10; in test [4] (setting [12]) it was 90. The “Barnyardgrass plant response rating” value in test [5] (setting [11]) worked out at 20; in test [5] (setting [15]), 100; in test [5] (setting [12]), 100. Moreover, the “Plant response rating, Barnyardgrass” value amounted to 80 in test [5] (setting [16]) and 50 in test [7]. The “Lambsquarters plant response rating” value in test [6] (setting [11]), in test [6] (setting [15]) and in test [6] (setting [12]) was 100 each time. In addition, the “Plant response rating, Lambsquarters” value in test [6] (setting [16]) is on record as 100.
In the case of `N#Cc1cnn(-c2c(CF)cccc2Oc2ncc(F)cn2)c1` [Compound 151], the “Plant response rating, Wheat” value in test [1] (setting [8]) came out at 20. Also, the “Wheat plant response rating” value is reported as 30 in test [1] (setting [14]), 0 in test [4] (setting [11]), 0 in test [4] (setting [15]) and 40 in test [4] (setting [12]). The “Plant response rating, Pigweed” value in test [2] (setting [8]) was determined as 20. In addition, the “Pigweed plant response rating” value in test [2] (setting [14]) was 70. Also, the “Plant response rating, Foxtail, Giant” value in test [3] (setting [10]) and in test [3] (setting [14]) was 100 throughout. The “Barnyardgrass plant response rating” value in test [5] (setting [11]) is 5; in test [5] (setting [15]) it was 70; in test [5] (setting [12]), 100. The figures for the “Plant response rating, Barnyardgrass” value in test [5] (setting [16]) and in test [7] were 5 and 0, respectively. Moreover, the “Lambsquarters plant response rating” value in test [6] (setting [11]), in test [6] (setting [15]) and in test [6] (setting [12]) was 100 in each case.

For the origin of these results see patent US9695155B2, “Herbicidal substituted pyrimidinyloxy benzene compounds” (E. I. DU PONT DE NEMOURS AND COMPANY, priority 2013, dated 2017).
